# Measurements taken from patent US5688793A, “Pyridazino[4',5':3,4]pyrrolo-[2,1-a]-isoquinolines and the use thereof for preparing pharmaceutical preparations” (Boehringer Ingelheim GmbH, priority 1993, dated 1997).
# Tested on: unselective cation channels (UCC)
# Assay: Thapsigargin-stimulated calcium entry through unselective cation channels in fura-2-charged RBL-hm 1 cells
# Assay type: cell-based, rat
# Conditions: 10^-5 M test substance, Thapsigargin (0.1 μM) stimulation
# Protocol: For screening purposes, fura-2-charged adhesive RBL-hm 1 cells are stimulated with […] Thapsigargin in a Ca^2+ -free incubation medium. After 4 minutes, extracellular Ca^2+ is restored to a concentration of 1.5 mM and, using the fura-2-fluorescence, the excessive increase in the cytoplasmic Ca^2+ -concentration caused by a massive transmembranal Ca^2+ -entry through unselective cation channels is recorded.
# The fluorometric calcium measurement in the cytoplasm of individual adhering RBL-hm1 cells is carried out analogously to the method described by KUDO and OGURA (1986) for neuronal cells. An AXIOVERT 35 fluorescence microscope made by ZEISS is used in conjunction with an imaging system made by HAMAMATSU, consisting of the ICMS-image processing system, residual light camera with control unit and image intensifier DVS 3000.
# The kinetics of the cytoplasmic Ca^2+ -concentration is recorded continuously as a concentration/time curve after the cell activation stimulated by Thapsigargin (0.1 μM). […] The area under these curves (area under the curve=AUC) is integrated and recorded as a measurement of cell activation. The inhibitory potency of the UCC-blockers tested is determined using the following equation: [formula] […]
# AUC control=area under the curve which is recorded only after the addition of the stimulant.
# The percentage inhibition of UCC after Thapsigargin stimulation (0.1 μM Thapsigargin) in RBL-hm 1 cells is given. […]
row,SMILES,"% H (10^-5 M), percentage inhibition of the calcium entry through unselective cation channels [%]"
1,COc1cc2c(cc1OC)-c1c3cnnc(SCc4ccc(F)cc4)c3cn1CC2,94.6
2,COc1cc2c(cc1OC)-c1c3cnnc(SCc4ccccc4)c3cn1CC2,97.5
3,COc1cc2c(cc1OC)-c1c3cnnc(SCc4ccc(Br)cc4)c3cn1CC2,62.9
4,COc1cc2c(cc1OC)-c1c3cnnc(SCCCCOc4ccccc4F)c3cn1CC2,61.6
5,"COc1cc2c(cc1OC)-c1c3cnnc(SC)c3cn1CC2 [CH3 (X:S), reference compound]",46.4
6,"COc1cc2c(cc1OC)-c1c3cnnc(OC)c3cn1CC2 [CH3 (X:O), 5,6-Dihydro-2,3,9-trimethoxypyridazino[4',5':3,4]-pyrrolo[2,1-a]isoquinoline]",62.5
7,COc1cc2c(cc1OC)-c1c3cnnc(SCc4cccc(Cl)c4)c3cn1CC2,81.9

# Tested on: RBL-2H3-cells
# Assay: Antigen (DNP-BSA)-induced activation of sensitised RBL-2H3 cells, fluorometric cytoplasmic calcium measurement
# Assay type: cell-based
# Conditions: Rattus norvegicus, read-out: inhibition of the antigen-induced cell activation
# Protocol: Individual RBL-2H3-cells (a turnout cell line related to the mast cells) adhering to glass slides are used.
# The cultivation and attachment of the RBL-2H3-cells are carried out by the method described by HIDE and BEAVEN (1991). In order to sensitise the adhesive RBL-2H3-cells the cells are incubated for 2 hours at ambient temperature with a 1:2000 diluted commercial gammaglobulin E-solution against a dinitrophenol-bovine serum albumin complex (DNP-BSA-antigen). The cells are then washed. By the addition of 0.1 ml of DNP-BSA-solution (10 μg/ml) there is a massive immunological cell activation which is mediated by a cytoplasmic Ca^2+ -overload. The fluorometric calcium measurement in the cytoplasm of individual adhering RBL-2H3-cells is carried out analogously to the method described by KUDO and OGURA (1986) for neuronal cells, which is also explained hereinbefore in this specification.
# The comparison used in these investigations is (10 μM) chromoglycate which brings about an approximately 50% inhibition of the antigen-induced cell activation.
row,SMILES,inhibition at 10 µM [%]
1,O=C(O)c1cc(=O)c2c(OCC(O)COc3cccc4oc(C(=O)O)cc(=O)c34)cccc2o1 [chromoglycate],~50
